In US12528761B2, “Thyromimetics” (Autobahn Therapeutics, Inc., priority 2020, dated 2026):

Biological target: T1, recombinant human FAAH (rhFAAH) (Homo sapiens, UniProt O00519)
T1 construct: purchased Cayman Chemical (Ann Arbor, MI, USA)
T1 sequence (O00519 1-579): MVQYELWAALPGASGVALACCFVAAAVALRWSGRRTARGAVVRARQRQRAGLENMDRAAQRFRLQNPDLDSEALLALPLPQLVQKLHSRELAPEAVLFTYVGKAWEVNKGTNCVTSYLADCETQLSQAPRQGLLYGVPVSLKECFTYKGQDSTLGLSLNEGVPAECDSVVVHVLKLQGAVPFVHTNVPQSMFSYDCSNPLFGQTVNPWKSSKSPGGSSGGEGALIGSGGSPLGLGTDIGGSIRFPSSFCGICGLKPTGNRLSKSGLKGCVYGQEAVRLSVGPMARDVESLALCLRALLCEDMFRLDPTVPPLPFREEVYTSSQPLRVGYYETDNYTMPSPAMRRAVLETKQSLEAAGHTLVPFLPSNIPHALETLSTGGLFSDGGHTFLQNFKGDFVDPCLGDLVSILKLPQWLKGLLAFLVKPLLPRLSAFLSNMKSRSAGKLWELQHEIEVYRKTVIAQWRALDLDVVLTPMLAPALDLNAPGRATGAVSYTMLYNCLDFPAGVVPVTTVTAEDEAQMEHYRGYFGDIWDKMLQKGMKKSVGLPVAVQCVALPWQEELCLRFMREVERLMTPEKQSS
Experiment: FAAH substrate evaluation (formation of acid metabolite, LC-MS/MS)
Assay type: biochemical
Design: key: A: ke is equal to or less than 1.0; B: ke is greater than 1.0 and less than or equal to 2.5; C: ke is greater than 2.5; NC: no conversion
Conditions: 0.5 ng/μL rhFAAH, 1 μM test compound, pH 8.0, room temperature, 0-60 minutes
Protocol: Purified recombinant human FAAH (rhFAAH) was purchased from Cayman Chemical (Ann Arbor, MI, USA). The total volume for each incubation was 400 μL containing a final 0.5 ng/μL rhFAAH, 1 μM test compound, 1.25% ethanol or 1 μM PF-3845 (FAAH inhibitor), and 0.1% bovine serum albumin in Tris-EDTA buffer at pH 8.0). The positive control was LL-341001. The incubation was conducted at the room temperature. At 0, 5, 15, 30 and 60 minutes, an aliquot of 30 μL reaction mixtures was removed and mixed with 300 μL acetonitrile containing 5 ng/mL terfenadine and 10 ng/mL tolbutamide as internal standards to quench the reaction. The resulting mixture was centrifuged at 4000 rpm, 4° C. for 15 minutes, and 100 μL supernatant was ready for LC-MS/MS analysis to measure the formation of acid metabolite.
Acquity Ultra Performance LC system from Waters was used for sample analysis. The chromatography was performed on a reverse phase Kinetex 2.6 μm C18 column, 2.1×30 mm, 100 Å. The mobile phase A comprised of 0.1% formic acid in water and mobile phase B comprised of 0.1% formic acid in acetonitrile with a 2-min run time at the flow rate of 0.8 mL/min for the acid metabolite from positive control or a 1.5 min run time at the flow rate of 0.9 mL/min for the acid metabolite of test compounds. The mass spectrometer (API-5500 and API Q Trap 4000 Applied Biosystems/MDS SCIEX Instruments, Framingham, MA, USA) was operated under ESI positive or negative ion MRM mode.
The formation of acid metabolite was monitored and quantified using one calibration point of 1 μM. The observed rate constant (ke) for the acid metabolite formation was calculated by plotting the metabolite concentration versus time of incubation with the slope being ke and is shown in Table 4.

Q: `CNC(=O)CSCc1cc(C)c(Cc2ccc(O)c(C(C)C)c2)c(Cl)c1` [Compound 241, 2-((3-chloro-4-(4-hydroxy-3-isopropylbenzyl)-5-methylbenzyl)thio)-N-methylacetamide] was tested. Which “ke, observed rate constant for the acid metabolite formation” value (from here on “ke, observed rate constant”) did it give?
A: B (ke is greater than 1.0 and less than or equal to 2.5)

Q: With `CC(C)c1c(O)ccc(Cc2c(Cl)cc(NCC(=O)Nc3ccnnc3)c(F)c2Cl)c1F` [Compound 162, 2-((3,5-dichloro-2-fluoro-4-(2-fluoro-4-hydroxy-3-isopropylbenzyl)phenyl)amino)-N-(pyridazin-4-yl)acetamide] as the compound, how does the “ke, observed rate constant” value read?
A: C (ke is greater than 2.5)

Q: For `CNC(=O)/C=C/c1cc(Cl)c(Cc2ccc(O)c(C(C)C)c2F)c(Cl)c1` [Compound 115, (E)-3-(3,5-dichloro-4-(2-fluoro-4-hydroxy-3-isopropylbenzyl)phenyl)-N-methylacrylamide], which “ke, observed rate constant” value is on record?
A: NC

Q: Which “ke, observed rate constant” value does the source give for `Cc1cc(CSCC(N)=O)cc(Cl)c1Cc1ccc(O)c(C(C)C)c1` [Compound 232, 2-((3-chloro-4-(4-hydroxy-3-isopropylbenzyl)-5-methylbenzyl)thio)acetamide] here?
A: C (ke is greater than 2.5)

Q: For `COc1ccc(NC(=O)CNc2cc(Cl)c(Cc3ccc(O)c(C(C)C)c3F)c(Cl)c2F)nn1` [Compound 159, 2-((3,5-dichloro-2-fluoro-4-(2-fluoro-4-hydroxy-3-isopropylbenzyl)phenyl)amino)-N-(6-methoxypyridazin-3-yl)acetamide], which “ke, observed rate constant” value is on record?
A: B (ke is greater than 1.0 and less than or equal to 2.5)

Q: How did the “ke, observed rate constant” value turn out when `CNC(=O)CCc1cc(C)c(Cc2ccc(O)c(C(C)C)c2F)c(Cl)c1` [Compound 236, 3-(3-chloro-4-(2-fluoro-4-hydroxy-3-isopropylbenzyl)-5-methylphenyl)-N-methylpropanamide] was run?
A: B (ke is greater than 1.0 and less than or equal to 2.5)

Q: With `CC(C)c1cc(Cc2c(Cl)cc(SCC(=O)NCc3ccccc3)cc2Cl)ccc1O` [Compound 184, N-benzyl-2-((3,5-dichloro-4-(4-hydroxy-3-isopropylbenzyl)phenyl)thio)acetamide] as the compound, how does the “ke, observed rate constant” value read?
A: A (ke is equal to or less than 1.0)

Q: How did the “ke, observed rate constant” value turn out when `Cc1cc(CSCC(=O)NC2CCCCC2)cc(Cl)c1Cc1ccc(O)c(C(C)C)c1` [Compound 131, 2-((3-chloro-4-(4-hydroxy-3-isopropylbenzyl)-5-methylbenzyl)thio)-N-cyclohexylacetamide] was run?
A: NC

Q: `Cc1cc(SCC(N)=O)cc(Cl)c1Cc1ccc(O)c(C(C)C)c1F` [Compound 234, 2-((3-chloro-4-(2-fluoro-4-hydroxy-3-isopropylbenzyl)-5-methylphenyl)thio)acetamide] was tested. Which “ke, observed rate constant” value did it give?
A: C (ke is greater than 2.5)

Q: With `CNC(=O)CSc1cc(Cl)c(Cc2ccc(O)c(C(C)C)c2F)c(Cl)c1` [Compound 188, 2-((3,5-dichloro-4-(2-fluoro-4-hydroxy-3-isopropylbenzyl)phenyl)thio)-N-methylacetamide] as the compound, how does the “ke, observed rate constant” value read?
A: B (ke is greater than 1.0 and less than or equal to 2.5)

Q: With `CC(C)CNC(=O)CSc1cc(Cl)c(Cc2ccc(O)c(C(C)C)c2)c(Cl)c1` [Compound 185, 2-((3,5-dichloro-4-(4-hydroxy-3-isopropylbenzyl)phenyl)thio)-N-isobutylacetamide] as the compound, how does the “ke, observed rate constant” value read?
A: NC

Q: With `CNC(=O)CSCc1cc(Cl)c(Cc2ccc(O)c(C(C)C)c2)c(C)c1F` [Compound 219, 2-((5-chloro-2-fluoro-4-(4-hydroxy-3-isopropylbenzyl)-3-methylbenzyl)thio)-N-methylacetamide] as the compound, how does the “ke, observed rate constant” value read?
A: A (ke is equal to or less than 1.0)

Q: How did the “ke, observed rate constant” value turn out when `CC(C)c1cc(Cc2c(Cl)cc(SCC(=O)NC34CC(C3)C4)cc2Cl)ccc1O` [Compound 178, N-(bicyclo[1.1.1]pentan-1-yl)-2-((3,5-dichloro-4-(4-hydroxy-3-isopropylbenzyl)phenyl)thio)acetamide] was run?
A: NC

Q: With `COc1ccc(NC(=O)CSc2cc(Cl)c(Cc3ccc(O)c(C(C)C)c3)c(Cl)c2)nn1` [Compound 169, 2-((3,5-dichloro-4-(4-hydroxy-3-isopropylbenzyl)phenyl)thio)-N-(6-methoxypyridazin-3-yl)acetamide] as the compound, how does the “ke, observed rate constant” value read?
A: A (ke is equal to or less than 1.0)

Q: How did the “ke, observed rate constant” value turn out when `CNC(=O)CSc1cc(C)c(Cc2ccc(O)c(C(C)C)c2)c(Cl)c1F` [Compound 218, 2-((3-chloro-2-fluoro-4-(4-hydroxy-3-isopropylbenzyl)-5-methylphenyl)thio)-N-methylacetamide] was run?
A: B (ke is greater than 1.0 and less than or equal to 2.5)

Q: How did the “ke, observed rate constant” value turn out when `CC(C)CNC(=O)CNc1cc(Cl)c(Cc2ccc(O)c(C(C)C)c2F)c(Cl)c1F` [Compound 164, 2-((3,5-dichloro-2-fluoro-4-(2-fluoro-4-hydroxy-3-isopropylbenzyl)phenyl)amino)-N-isobutylacetamide] was run?
A: NC

Q: `CC(C)c1cc(Cc2c(Cl)cc(SCC(=O)Nc3cnccn3)cc2Cl)ccc1O` [Compound 171, 2-((3,5-dichloro-4-(4-hydroxy-3-isopropylbenzyl)phenyl)thio)-N-(pyrazin-2-yl)acetamide] was tested. Which “ke, observed rate constant” value did it give?
A: B (ke is greater than 1.0 and less than or equal to 2.5)

Q: How did the “ke, observed rate constant” value turn out when `CCNC(=O)CSc1cc(Cl)c(Cc2ccc(O)c(C(C)C)c2)c(Cl)c1` [Compound 186, 2-((3,5-dichloro-4-(4-hydroxy-3-isopropylbenzyl)phenyl)thio)-N-ethylacetamide] was run?
A: A (ke is equal to or less than 1.0)

Q: With `CNC(=O)Cc1cc(Cl)c(Cc2ccc(O)c(C(C)C)c2)c(Cl)c1` [Compound 7, 2-(3,5-dichloro-4-(4-hydroxy-3-isopropylbenzyl)phenyl)-N-methylacetamide] as the compound, how does the “ke, observed rate constant” value read?
A: NC

Q: How did the “ke, observed rate constant” value turn out when `CC(C)c1c(O)ccc(Cc2c(Cl)cc(NCC(=O)Nc3cccnc3)c(F)c2Cl)c1F` [Compound 160, 2-((3,5-dichloro-2-fluoro-4-(2-fluoro-4-hydroxy-3-isopropylbenzyl)phenyl)amino)-N-(pyridin-3-yl)acetamide] was run?
A: B (ke is greater than 1.0 and less than or equal to 2.5)

Q: For `CNC(=O)CNc1cc(Cl)c(Cc2ccc(O)c(C(C)C)c2F)c(Cl)c1` [Compound 47, 2-((3,5-dichloro-4-(2-fluoro-4-hydroxy-3-isopropylbenzyl)phenyl)amino)-N-methylacetamide], which “ke, observed rate constant” value is on record?
A: A (ke is equal to or less than 1.0)

Q: Which “ke, observed rate constant” value does the source give for `CC(C)c1c(O)ccc(Cc2c(Cl)cc(NCC(=O)NCCCF)c(F)c2Cl)c1F` [Compound 155, 2-((3,5-dichloro-2-fluoro-4-(2-fluoro-4-hydroxy-3-isopropylbenzyl)phenyl)amino)-N-(3-fluoropropyl)acetamide] here?
A: A (ke is equal to or less than 1.0)

Q: `CNC(=O)/C(C)=C/c1cc(Cl)c(Cc2ccc(O)c(C(C)C)c2)c(C)c1F` [Compound 237, (E)-3-(5-chloro-2-fluoro-4-(4-hydroxy-3-isopropylbenzyl)-3-methylphenyl)-N,2-dimethylacrylamide] was tested. Which “ke, observed rate constant” value did it give?
A: A (ke is equal to or less than 1.0)

Q: For `Cc1cc(CSCC(=O)NC2CC2)cc(Cl)c1Cc1ccc(O)c(C(C)C)c1` [Compound 229, 2-((3-chloro-4-(4-hydroxy-3-isopropylbenzyl)-5-methylbenzyl)thio)-N-cyclopropylacetamide], which “ke, observed rate constant” value is on record?
A: C (ke is greater than 2.5)
